Assay results from ChEMBL document CHEMBL3137440, “DNDi T. cruzi fenarimol series dataset from which preclinical candidate EPL-BS0967 was identified (see also related datasets: CHEMBL3137386 and CHEMBL2448688)”.
≈ marks a conversion by molar mass, not a printed value.

How the values were obtained:
[1] = tested on: Trypanosoma cruzi; experiment: (§1) DNDI: Chagas in Vitro; format: functional, organism-based, Tulahuen C4 (LacZ)
[2] = tested on: Trypanosoma cruzi; experiment: as §1; format: functional, Tulahuen C4 (LacZ)
[3] = DNDI: Cytotoxicity against L-6 rat myoblasts from skeletal musclE; conditions: L6 rat skeletal muscle myoblasts, IC50
[4] = DNDI: Lipophilicity (gLogD) at pH 3; conditions: buffer
[5] = DNDI: Lipophilicity (gLogD) at pH 7.4; conditions: buffer
[6] = DNDI: Solubility in 0.01M HCl at pH 2 determined by nephelometry
[7] = DNDI: Solubility in phosphate buffer at pH 6.5 determined by nephelometry
[8] = in vitro; conditions: human, microsomes
[9] = in vitro; conditions: human, microsomes; remark: listed apart in the source
[10] = target: Cytochrome P450 3A4 (Homo sapiens, UniProt P08684)
[11] = in vitro; conditions: human, microsomes; remark: listed apart in the source
[12] = Trypanosoma cruzi, Tulahuen C4 (LacZ)

Chain of Cytochrome P450 3A4 (P08684 whole entry): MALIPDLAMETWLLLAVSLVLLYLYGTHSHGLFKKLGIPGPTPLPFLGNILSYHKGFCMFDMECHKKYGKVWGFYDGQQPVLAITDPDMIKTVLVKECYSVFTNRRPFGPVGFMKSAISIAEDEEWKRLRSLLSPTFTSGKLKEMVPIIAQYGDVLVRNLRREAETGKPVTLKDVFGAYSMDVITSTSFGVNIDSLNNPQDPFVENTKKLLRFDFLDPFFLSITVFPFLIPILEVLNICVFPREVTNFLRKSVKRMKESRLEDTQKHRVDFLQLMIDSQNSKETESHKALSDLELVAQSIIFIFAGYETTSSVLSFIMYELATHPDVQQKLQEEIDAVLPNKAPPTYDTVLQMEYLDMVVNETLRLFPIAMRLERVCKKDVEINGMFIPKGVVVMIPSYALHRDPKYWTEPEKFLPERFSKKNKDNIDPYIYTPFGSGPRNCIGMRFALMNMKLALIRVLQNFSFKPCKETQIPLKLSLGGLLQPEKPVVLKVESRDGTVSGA

Compound	IC50 [1, 12]	IC90 [2, 12]	IC50 [3]	solubility kinetic [6]	solubility kinetic [7]	other results
FC(F)(F)c1ccc(N(c2cccnc2)C2CCN(c3ccc(Cl)cc3)CC2)cc1	15 nM	27 nM	> 100000 nM	> 100 µg/mL	< 1.6 µg/mL	IC50 [1]: 22 nM; IC90 [2]: 25 nM; chromatographic logD ([4]; pH 3): > 5.3; chromatographic logD ([5]; pH 7.4): > 5.3; half-life [8]: 51 min; microsomal CLint [9]: 34 µL/min/mg
FC(F)(F)c1ccc(N(c2cccnc2)C2CCN(c3ccc(C(F)(F)F)nc3)CC2)cc1	–	32 nM	–	–	–	–
FC(F)(F)c1ccc(N(c2cccnc2)C2CCN(c3ccccn3)CC2)cc1	24 nM	51 nM	–	–	–	–
FC(F)(F)c1ccc(N(c2cccnc2)C2CCN(c3ccc(Cl)cn3)CC2)cc1	39 nM	83 nM	–	–	–	–
CS(=O)(=O)c1ccc(N2CCC(N(c3ccc(Cl)cc3)c3cccnc3)CC2)cc1	2.18 nM	5.7 nM	–	> 100 µg/mL	< 1.6 µg/mL	chromatographic logD ([4]; pH 3): 2.3; chromatographic logD ([5]; pH 7.4): 3.9; IC50 [10]: 2000 nM; half-life [8]: 13.1 min; hepatic extraction ratio [11]: 0.88; microsomal CLint [9]: 132 µL/min/mg
CS(=O)(=O)c1ccc(N2CCC(N(c3ccc(C#N)cc3)c3cccnc3)CC2)cc1	2.35 nM	6.6 nM	> 100000 nM	–	1.6 µg/mL (≈ 3.7 µM)	chromatographic logD ([4]; pH 3): 2.7; chromatographic logD ([5]; pH 7.4): 3; half-life [8]: 111 min; hepatic extraction ratio [11]: 0.47; microsomal CLint [9]: 15.6 µL/min/mg
CC(C)(C)N1CCC(N(c2ccc(C(F)(F)F)cc2)c2cccnc2)CC1	603 nM	1070 nM	–	–	–	–
O=C(c1ccccc1)N1CCC(N(c2ccc(C(F)(F)F)cc2)c2cccnc2)CC1	7.46 nM	16.6 nM	–	–	–	–
FC(F)(F)c1ccc(N(c2cccnc2)C2CCN(Cc3ccccc3C(F)(F)F)CC2)cc1	9 nM	36 nM	–	> 100 µg/mL	1.6 µg/mL (≈ 3.34 µM)	chromatographic logD ([4]; pH 3, logD): 2.7; chromatographic logD ([5]; pH 7.4, logD): > 5.3; half-life ([8]; t (1 / 2)): 18.7 min; microsomal CLint ([9]; CLint): 92.8 µL/min/mg
Fc1ccccc1CN1CCC(N(c2ccc(C(F)(F)F)cc2)c2cccnc2)CC1	21 nM	40 nM	–	–	–	–
Cc1ccccc1CN1CCC(N(c2ccc(C(F)(F)F)cc2)c2cccnc2)CC1	7 nM	19 nM	–	> 100 µg/mL	–	chromatographic logD ([4]; pH 3, logD): 2; chromatographic logD ([5]; pH 7.4, logD): > 5.3; half-life ([8]; t (1 / 2)): 14.1 min; microsomal CLint ([9]; CLint): 123 µL/min/mg
FC(F)(F)c1ccc(N(c2cccnc2)C2CCN(c3ccccc3C(F)(F)F)CC2)cc1	15 nM	36 nM	–	–	–	–
O=C(c1c(F)cccc1F)N1CCC(N(c2ccc(C(F)(F)F)cc2)c2cccnc2)CC1	2 nM	9 nM	48900 nM	–	–	–
FC(F)(F)c1ccc(N(c2cccnc2)C2CCN(c3ccccc3)CC2)cc1	14 nM	30 nM	57400 nM	> 100 µg/mL	< 1.6 µg/mL	chromatographic logD ([4]; pH 3): 4.7; chromatographic logD ([5]; pH 7.4): > 5.3; half-life [8]: 29.7 min; microsomal CLint [9]: 58.4 µL/min/mg
FC(F)(F)c1ccc(N(c2cccnc2)C2CCN(Cc3cccc(C(F)(F)F)c3)CC2)cc1	38 nM	72 nM	52100 nM	> 100 µg/mL	3.1 µg/mL (≈ 6.47 µM)	chromatographic logD ([4]; pH 3, logD): 2.5; chromatographic logD ([5]; pH 7.4, logD): > 5.3; half-life ([8]; t (1 / 2)): 26 min; microsomal CLint ([9]; CLint): 66 µL/min/mg
Cc1ccc(CN2CCC(N(c3ccc(C(F)(F)F)cc3)c3cccnc3)CC2)cc1	67 nM	> 100 nM	45600 nM	–	–	–
FC(F)(F)c1ccc(CN2CCC(N(c3ccc(C(F)(F)F)cc3)c3cccnc3)CC2)cc1	33 nM	80 nM	–	–	–	–
COc1cccc(CN2CCC(N(c3ccc(C(F)(F)F)cc3)c3cccnc3)CC2)c1	56 nM	90 nM	36800 nM	–	–	–
COc1ccc(CN2CCC(N(c3ccc(C(F)(F)F)cc3)c3cccnc3)CC2)cc1	57 nM	92 nM	16300 nM	> 100 µg/mL	6.3 µg/mL (≈ 14.3 µM)	chromatographic logD ([4]; pH 3, logD): 2; chromatographic logD ([5]; pH 7.4, logD): 4.9; half-life ([8]; t (1 / 2)): 31 min; microsomal CLint ([9]; CLint): 56 µL/min/mg
Cc1cccc(CN2CCC(N(c3ccc(C(F)(F)F)cc3)c3cccnc3)CC2)c1	44 nM	79 nM	42900 nM	–	–	–
